Experimental data reported in BigSolDB 2.1.

O=C(N[C@@H](Cc1ccc(O)cc1)C(=O)O)OCC1c2ccccc2-c2ccccc21
solubility (mole fraction)
Details | 293.15 K | 298.15 K | 303.15 K | 308.15 K | 313.15 K | 318.15 K | 323.15 K | 328.15 K | 333.15 K
in acetone | 0.0683 | 0.0723 | 0.077 | 0.078 | 0.0824 | 0.0901 | 0.0959 | – | –
in acetonitrile | 0.00233 | 0.00272 | 0.00326 | 0.00382 | 0.00432 | 0.00504 | 0.00637 | 0.00781 | 0.00884
in dimethyl carbonate | 0.00346 | 0.00367 | 0.0044 | 0.00477 | 0.00583 | 0.00638 | 0.00747 | 0.00918 | 0.0109
in ethyl acetate | 0.0129 | 0.0135 | 0.014 | 0.0152 | 0.0164 | 0.019 | 0.0203 | 0.0222 | 0.0254
in isobutanol | 0.00543 | 0.00685 | 0.00823 | 0.00992 | 0.0123 | 0.0146 | 0.0175 | 0.0219 | 0.0279
in isopropanol | 0.0147 | 0.0179 | 0.0213 | 0.027 | 0.0307 | 0.0385 | 0.043 | 0.0546 | 0.0691
in methyl acetate | 0.0155 | 0.0163 | 0.0173 | 0.0177 | 0.0209 | 0.0219 | 0.0249 | – | –
in n-butanol | 0.0129 | 0.0151 | 0.0178 | 0.0198 | 0.0231 | 0.0281 | 0.0319 | 0.0385 | 0.0463
in n-butyl acetate | 0.00611 | 0.00636 | 0.00688 | 0.00765 | 0.00862 | 0.00933 | 0.00976 | 0.0118 | 0.0124
in n-pentanol | 0.0111 | 0.0121 | 0.0144 | 0.0168 | 0.02 | 0.0231 | 0.0244 | 0.0324 | 0.0388
in n-propyl acetate | 0.00762 | 0.00799 | 0.00861 | 0.00951 | 0.0104 | 0.0108 | 0.0126 | 0.0138 | 0.015
in sec-butanol | 0.0146 | 0.018 | 0.0215 | 0.0263 | 0.0323 | 0.0388 | 0.0454 | 0.0538 | 0.0639
